Kd data for 5 compounds are collected here from BindingDB's records for doi:10.1074/jbc.M113.487777 (McGill University, 2013).

Molecules are shown by their SMILES.

In this test the target is T1, Inositol-pentakisphosphate 2-kinase (Mouse-ear cress, UniProt Q93YN9).
T1 sequence (Q93YN9 whole entry): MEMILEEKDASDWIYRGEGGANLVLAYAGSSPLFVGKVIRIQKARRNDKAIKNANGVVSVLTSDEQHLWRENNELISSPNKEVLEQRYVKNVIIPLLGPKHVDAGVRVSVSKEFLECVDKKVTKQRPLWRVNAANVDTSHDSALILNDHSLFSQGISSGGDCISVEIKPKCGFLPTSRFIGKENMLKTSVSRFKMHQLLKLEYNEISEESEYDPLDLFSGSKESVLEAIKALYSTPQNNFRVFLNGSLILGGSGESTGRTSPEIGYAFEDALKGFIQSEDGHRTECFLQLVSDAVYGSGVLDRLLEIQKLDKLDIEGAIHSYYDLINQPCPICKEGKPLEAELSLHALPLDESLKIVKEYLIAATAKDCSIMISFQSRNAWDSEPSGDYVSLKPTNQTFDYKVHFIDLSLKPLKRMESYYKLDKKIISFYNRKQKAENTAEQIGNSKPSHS
The experiment in a line: Isothermal Titration Calorimetry (ITC). The conditions noted are these: pH 7.5; 25 °C. The procedure:
Experiments were performed on a MicroCal iTC200 titration calorimeter (GE Healthcare). Wild-type IPK1 was purified and dialyzed into ITC buffer containing 50 mM HEPES (pH 7.5), 6 mM MgCl2, 150 mM NaCl, and 1 mM tris(2-carboxyethyl)phosphine (pH 7.0). After protein dialysis was complete, dialysis buffer was used to dissolve the ligands, IP, and AMP-PNP (Jena Bioscience). Titration experiments were performed at 25 °C with 100 uM IPK1 and1mM AMP-PNP in the cell and 1-2 mM IP in the syringe to ensure a final IP:IPK1 molar ratio of at least 2:1. Titration experiments were performed at least twice for each IP, and one set was chosen to represent data.
On the technique in general: Isothermal titration calorimetry measures the heat released or taken up as one component is titrated into another.

What is called Kd is the equilibrium constant for the complex coming apart. High values mean weaker binding, low ones tighter binding. On to `O=P(O)(O)O[C@H]1[C@H](O)[C@@H](OP(=O)(O)O)[C@H](OP(=O)(O)O)[C@@H](OP(=O)(O)O)[C@H]1O` [1,3,4,5-Inositol tetrakisphosphate (1,3,4,5-IP4)], for which the Kd stood at 18.2 µM. The result for `O=P(O)(O)O[C@@H]1[C@@H](O)[C@H](OP(=O)(O)O)[C@@H](OP(=O)(O)O)[C@@H](O)[C@H]1OP(=O)(O)O` [1,3,4,6-Inositol tetrakisphosphate (1,3,4,6-IP4)] reads 26.9 µM. For the compound `O=P(O)(O)O[C@@H]1[C@@H](OP(=O)(O)O)[C@H](OP(=O)(O)O)[C@@H](O)[C@@H](O)[C@H]1OP(=O)(O)O` [1,4,5,6-Inositol tetrakisphosphate (1,4,5,6-IP4)], the Kd is 8.2 µM.

Consider `O=P(O)(O)O[C@H]1[C@H](OP(=O)(O)O)[C@@H](OP(=O)(O)O)[C@@H](O)[C@@H](O)[C@@H]1OP(=O)(O)O` [3,4,5,6-Inositol tetrakisphosphate (3,4,5,6-IP4)], for which the dissociation constant Kd was 7.52 µM. `O=P(O)(O)O[C@@H]1[C@@H](OP(=O)(O)O)[C@H](OP(=O)(O)O)[C@H](O)[C@H](OP(=O)(O)O)[C@H]1OP(=O)(O)O` [Inositol 1,3,4,5,6-pentakisphosphate (IP5)] had a Kd of 0.6 µM.
